# Experiments:
# [1] = system: E-cadherin; test: qRT-PCR expression level of E-cadherin gene (epithelial marker) in A549 spheroids; format: cell-based, human; settings: A549, SB431542 10 μM with TGF-β2 5 ng/ml and TNF-α 10 ng/ml, sixth day, corrected by TBP (FIG. 6)
# Method: (§1) In order to verify whether or not a change in the morphology of the spheroid confirmed in the second example reflects an epithelial-mesenchymal transition and an epithelial-mesenchymal transition inhibition, a result of measuring an expression level of a gene that is known as an epithelial or mesenchymal marker through qRT-PCR is shown in FIGS. 6 to 9. The processes from (1) pre-incubation to (3) addition of the epithelial-mesenchymal transition inducer and inhibitor were carried out likewise the second example. Next, at the sixth day of the culturing, all RNAs were extracted from each sample using RNeasy Plus Mini Kit (made by QIAGEN corporation), and such RNAs having undergone reverse transcription using PrimeScript RT reagent Kit (made by TAKARABIO Inc.) were used for qRT-PCR. SYBER Premix Ex Tagll (made by TAKARABIO Inc.) was used for PCR. Moreover, Thermal Cycler Dice (made by TAKARABIO Inc.) was used for a reaction and a detection. Note that data is corrected by the expression level of internal standard gene (TBP), and is shown as a relative value when the expression level of the control is taken as 1.
# [2] = system: human-lung-cancer-cells derived strain A549; test: Effect of epithelial-mesenchymal transition inhibitor on morphology and hypoxic area (LOX-1 red signal) of spheroids on NanoCulture plate; format: cell-based
# Method: 5-%-FBS-containing DMEM culture medium and 1.0-%-Matrigel (registered trademark) containing DMEM culture medium were added in respective wells of a cell culture vessels NanoCulture (registered trademark) plate (made by SCIVAX corporation, 384-well plate, material of concavity-convexity structure surface=polymethylpentene (TPX made by MITSUI Chemical Co., Ltd.), planar shape of concavo-convex structure=square, width between unit structures (line width)=700 nm, minimum internal diameter of unit structure=3 μm, and depth=1 μm) by 25 μl, and were subjected to centrifugal force for five minutes at 1000×g.
# A cell suspension having human-lung-cancer-cells derived strain A549 adjusted to 13.5×10^4 cells/ml by a 5-%-FBS-containing DMEM culture medium was added to each well of the above-explained plate by 25 μl (the number of cells was 3.4×10^3 cells/well, and the final concentration of the culture medium additive was 5% FBS and 0.5% Matrigel).
# At the third day of the culturing, TGF-β2 (made by R&D systems corporation, 302-B2-002) and TNF-α (made by R&D systems corporation, 210-TA-010) which were epithelial-mesenchymal transition inducers were added to each well in such a way that a final concentration became 5 ng/ml and 10 ng/ml, respectively. While at the same time, SB431542 (made by Miltenyi Biotec corporation, 130-095-561) that was an inhibitor of TGF-β2 was added in such a way that a final concentration became 10 μM.
# Dimethyl-sulfoxide was added to all wells where no SB431542 was added in such a way that a final concentration became 0.1%.
# At the fifth day of the culturing, a hypoxic area detection reagent LOX-1 (made by SCIVAX corporation) was added to each well in such a way that a final concentration became 2 μM. LOX-1 is a reagent that contains iridium complex which emits red phosphorescence.
# An observation through a fluorescent microscope was carried out at the sixth day of the culturing.
# [3] = system: N-cadherin; test: qRT-PCR expression level of N-cadherin gene (mesenchymal marker) in A549 spheroids; format: cell-based, human; settings: A549, SB431542 10 μM with TGF-β2 5 ng/ml and TNF-α 10 ng/ml, sixth day, corrected by TBP (FIG. 7)
# Method: as §1
# [4] = A549, SB431542 10 μM with TGF-β2 5 ng/ml and TNF-α 10 ng/ml, LOX-1 2 μM, sixth day
compound,measurement,setting,value
NC(=O)c1ccc(-c2nc(-c3ccc4c(c3)OCO4)c(-c3ccccn3)[nH]2)cc1 [SB431542],expression level of E-cadherin,[1],~60 % of the control
same,morphology of spheroids (bright field image),"[2]; A549, SB431542 10 μM with TGF-β2 5 ng/ml and TNF-α 10 ng/ml added at third day, observed sixth day, compared with well where no inhibitor was added",the collapse of spheroids were suppressed and the contours of the spheroids had a small concavity and convexity
same,"red intensity and red area (hypoxic area, LOX-1, fluorescent field image)",[2]; [4],the red intensity was high and the red area was large
same,"red signal (quantified, FIG. 5) relative to the well where no inhibitor was added",[2]; [4],about twice
same,expression level of N-cadherin,[3],decreased to substantially same level as that of the control
